By pIC50 is commonly meant the negative decadic logarithm of the IC50, by convention in mol/L.

Each structure is given as a SMILES string. pIC50: −log10 of the molar value. Like-named read-outs stand apart in the source and are kept apart here.

We go through 22 molecules from US10040781B2, “Tank-binding kinase inhibitor compounds” (Gilead Sciences, Inc., priority 2014, dated 2018).

The target of test [1] is hJAK2 (Homo sapiens (Human), UniProt O60674). As to the kind of experiment: hJAK2 LANCE TR-FRET enzymatic assay. In kind it is biochemical. Conditions: read-out: JAK2 IC50. For orientation: TR-FRET usually uses a lanthanide donor and a delayed reading to cut background.
Test [2] addresses TBK1 (Homo sapiens (Human), UniProt Q9UHD2). As to the kind of experiment: TBK1 TR-FRET enzymatic assay.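 Further: phosphorylation of a biotinylated Ser/Thr peptide by purified full-length recombinant TBK1, read by TR-FRET after 240 min at 25 °C, IC50 is the geometric mean of at least four runs.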
Experimental: Enzymatic activity of IKKε and TBK1 was measured using a homogeneous time resolved fluorescence resonance energy transfer (TR-FRET) assay that monitors enzyme dependent phosphorylation of a biotinylated serine/threonine peptide substrate. […] TBK1 and IKKε were expressed and purified as full length recombinant proteins. Detection reagents for the assay were purchased from Cisbio. […] After an assay reaction time of 240 minutes at 25° C., reactions were terminated with EDTA.
All IC50 values represent geometric mean values of a minimum of four determinations.
Test [3] deals with IKKε (Homo sapiens (Human), UniProt Q14164). As to the kind of experiment: IKKε TR-FRET enzymatic assay. In kind it is biochemical. Conditions: read-out: IKKe IC50.
Where [4] appears, read: TR-FRET, 2×Km ATP, geometric mean of minimum four determinations.

Sequence of IKKε (Q14164 whole entry): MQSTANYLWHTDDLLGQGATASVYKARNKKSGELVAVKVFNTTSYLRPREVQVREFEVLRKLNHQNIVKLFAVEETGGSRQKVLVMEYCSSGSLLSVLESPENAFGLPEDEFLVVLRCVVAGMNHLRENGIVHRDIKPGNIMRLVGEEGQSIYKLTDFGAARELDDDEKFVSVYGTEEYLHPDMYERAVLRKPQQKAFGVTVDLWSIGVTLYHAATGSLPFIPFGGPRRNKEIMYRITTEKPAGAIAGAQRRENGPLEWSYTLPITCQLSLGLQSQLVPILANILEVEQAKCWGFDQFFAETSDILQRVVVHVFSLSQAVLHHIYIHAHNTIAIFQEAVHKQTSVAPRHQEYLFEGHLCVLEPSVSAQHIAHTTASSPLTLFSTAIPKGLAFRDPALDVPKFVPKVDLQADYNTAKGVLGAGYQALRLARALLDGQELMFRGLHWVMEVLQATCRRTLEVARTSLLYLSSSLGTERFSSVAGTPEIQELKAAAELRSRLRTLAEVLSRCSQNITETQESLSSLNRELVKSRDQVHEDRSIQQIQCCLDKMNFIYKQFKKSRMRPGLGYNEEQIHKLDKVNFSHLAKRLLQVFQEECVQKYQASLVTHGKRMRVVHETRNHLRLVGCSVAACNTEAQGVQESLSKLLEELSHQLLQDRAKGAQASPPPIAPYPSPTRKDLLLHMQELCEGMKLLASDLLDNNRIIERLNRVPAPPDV
Sequence of TBK1 (Q9UHD2 whole entry): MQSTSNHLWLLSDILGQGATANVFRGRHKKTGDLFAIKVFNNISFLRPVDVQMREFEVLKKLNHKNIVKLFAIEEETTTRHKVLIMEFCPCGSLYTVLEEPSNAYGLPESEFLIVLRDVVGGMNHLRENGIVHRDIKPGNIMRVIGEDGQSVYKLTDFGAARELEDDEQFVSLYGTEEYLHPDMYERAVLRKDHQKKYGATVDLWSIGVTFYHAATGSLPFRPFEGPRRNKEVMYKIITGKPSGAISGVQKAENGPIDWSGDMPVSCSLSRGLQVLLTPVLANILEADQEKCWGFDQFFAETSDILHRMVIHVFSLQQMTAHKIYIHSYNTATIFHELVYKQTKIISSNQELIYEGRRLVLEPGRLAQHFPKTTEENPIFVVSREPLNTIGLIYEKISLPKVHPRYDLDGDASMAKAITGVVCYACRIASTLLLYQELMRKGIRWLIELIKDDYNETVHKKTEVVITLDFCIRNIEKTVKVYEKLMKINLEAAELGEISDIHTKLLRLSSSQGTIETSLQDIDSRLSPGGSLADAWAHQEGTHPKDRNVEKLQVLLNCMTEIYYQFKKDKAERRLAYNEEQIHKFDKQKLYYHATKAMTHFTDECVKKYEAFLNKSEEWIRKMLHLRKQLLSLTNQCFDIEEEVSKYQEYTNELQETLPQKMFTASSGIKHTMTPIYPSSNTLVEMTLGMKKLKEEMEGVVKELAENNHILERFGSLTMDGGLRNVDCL
Sequence of hJAK2 (O60674 whole entry): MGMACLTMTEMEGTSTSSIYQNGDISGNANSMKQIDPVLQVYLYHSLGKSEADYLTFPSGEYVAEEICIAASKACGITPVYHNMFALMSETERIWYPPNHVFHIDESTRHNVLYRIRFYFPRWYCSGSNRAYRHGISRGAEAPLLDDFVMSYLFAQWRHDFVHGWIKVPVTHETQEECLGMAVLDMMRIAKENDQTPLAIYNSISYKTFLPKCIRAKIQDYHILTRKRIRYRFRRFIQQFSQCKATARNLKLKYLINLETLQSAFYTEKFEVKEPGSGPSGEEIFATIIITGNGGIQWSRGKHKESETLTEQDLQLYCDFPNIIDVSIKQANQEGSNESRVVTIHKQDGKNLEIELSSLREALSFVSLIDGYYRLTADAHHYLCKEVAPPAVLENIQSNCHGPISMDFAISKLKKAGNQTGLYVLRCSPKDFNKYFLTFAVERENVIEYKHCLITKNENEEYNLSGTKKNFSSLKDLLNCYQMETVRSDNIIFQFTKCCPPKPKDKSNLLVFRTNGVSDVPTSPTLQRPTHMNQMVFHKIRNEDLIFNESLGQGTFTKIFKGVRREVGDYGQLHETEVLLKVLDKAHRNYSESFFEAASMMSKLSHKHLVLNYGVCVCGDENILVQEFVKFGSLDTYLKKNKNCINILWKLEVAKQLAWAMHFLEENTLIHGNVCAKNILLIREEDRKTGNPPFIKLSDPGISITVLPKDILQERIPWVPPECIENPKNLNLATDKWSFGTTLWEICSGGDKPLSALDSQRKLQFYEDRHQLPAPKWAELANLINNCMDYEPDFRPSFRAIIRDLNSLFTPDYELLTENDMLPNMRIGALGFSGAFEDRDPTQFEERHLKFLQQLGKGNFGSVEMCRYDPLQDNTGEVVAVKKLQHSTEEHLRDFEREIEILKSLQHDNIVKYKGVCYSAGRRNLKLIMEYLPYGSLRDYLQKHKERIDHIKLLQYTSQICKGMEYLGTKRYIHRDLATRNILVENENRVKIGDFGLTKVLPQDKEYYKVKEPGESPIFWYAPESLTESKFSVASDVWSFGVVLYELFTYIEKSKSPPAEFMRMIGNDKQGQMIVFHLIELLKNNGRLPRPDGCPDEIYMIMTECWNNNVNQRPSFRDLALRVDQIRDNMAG

Turning to `N#Cc1cc(-c2ncnc(Nc3ccc(N4CCN(C5COC5)CC4)cc3)n2)ccc1OC1CCN(C(=O)c2ccc[nH]2)CC1(F)F` (stereo not drawn) [Example 162, 2-((3,3-difluoro-1-(1H-pyrrole-2-carbonyl)piperidin-4-yl)oxy)-5-(4-((4-(4-(oxetan-3-yl)piperazin-1-yl)phenyl)amino)-1,3,5-triazin-2-yl)benzonitrile], the pIC50 in test [1] is 6.23; in test [2], 8.30; in test [3], 8.40.
Consider `C[C@H]1CN(c2ccc(Nc3ncnc(-c4ccc(O[C@H]5CCN(C(=O)[C@@H]6CCC(=O)N6)C[C@H]5F)c(C#N)c4)n3)cc2)CCN1C1COC1` [Example 535, 2-(((3R,4S)-3-fluoro-1-((S)-5-oxopyrrolidine-2-carbonyl)piperidin-4-yl)oxy)-5-(4-((4-((S)-3-methyl-4-(oxetan-3-yl)piperazin-1-yl)phenyl)amino)-1,3,5-triazin-2-yl)benzonitrile], for which the pIC50 in test [1] is 6.04; in test [2], 8.52; in test [3] (setting [4]), 8.52.
Turning to `N#Cc1cc(-c2ncnc(Nc3ccc(N4CCN(C5COC5)CC4)cc3)n2)ccc1NC1CCOCC1` [Example 121, 5-(4-((4-(4-(oxetan-3-yl)piperazin-1-yl)phenyl)amino)-1,3,5-triazin-2-yl)-2-((tetrahydro-2H-pyran-4-yl)amino)benzonitrile], the results for the negative logarithm of the IC50 (pIC50) in test [1], in test [2] and in test [3] were 7.49, 7.96 and 7.33, respectively.
The like results for `C[C@H](O)C(=O)N1CC[C@H](Oc2ccc(-c3ncnc(Nc4ccc(N5CCN(C6COC6)C[C@@H]5C)cc4)n3)cc2C#N)[C@H](F)C1` [Example 249, 2-(((3R,4S)-3-fluoro-1-((S)-2-hydroxypropanoyl)piperidin-4-yl)oxy)-5-(4-((4-((S)-2-methyl-4-(oxetan-3-yl)piperazin-1-yl)phenyl)amino)-1,3,5-triazin-2-yl)benzonitrile] were, in that order, 6.41, 8.52 and 8.70.
On to `N#Cc1cc(-c2ncnc(Nc3ccc(N4CCN(C5COC5)CC4)cc3)n2)ccc1O[C@H]1CCN(C(=O)Cc2cnn[nH]2)C[C@H]1F` [Example 319, 2-(((3R,4S)-1-(2-(1H-1,2,3-triazol-5-yl)acetyl)-3-fluoropiperidin-4-yl)oxy)-5-(4-((4-(4-(oxetan-3-yl)piperazin-1-yl)phenyl)amino)-1,3,5-triazin-2-yl)benzonitrile], for which the pIC50 is 6.99 in test [1], 8.40 in test [2] and 8.15 in test [3].
In the case of `COc1cc(Nc2ncnc(-c3ccc(OC4CCOCC4)c(C#N)c3)n2)ccc1C(N)=O` [Example 21, 4-((4-(3-cyano-4-((tetrahydro-2H-pyran-4-yl)oxy)phenyl)-1,3,5-triazin-2-yl)amino)-2-methoxybenzamide], the negative-log IC50 (pIC50) is under 6.00 in test [1], 8.40 in test [2] and 8.22 in test [3].
For the molecule `N#Cc1cc(-c2ncnc(Nc3ccc(N4CCN(C=O)CC4)c(F)c3)n2)ccc1O[C@H]1CCOC[C@H]1F` [Example 299, 5-(4-((3-fluoro-4-(4-formylpiperazin-1-yl)phenyl)amino)-1,3,5-triazin-2-yl)-2-(((3R,4S)-3-fluorotetrahydro-2H-pyran-4-yl)oxy)benzonitrile], the negative-log IC50 (pIC50) in test [1] is 6.40; in test [2], 8.40; in test [3] it was 8.10.
Take `CCn1ncc(Nc2ncnc(-c3ccc(O[C@H]4CCN(C(=O)CO)C[C@H]4F)c(C#N)c3)n2)n1` [Example 503, 5-(4-((2-ethyl-2H-1,2,3-triazol-4-yl)amino)-1,3,5-triazin-2-yl)-2-(((3R,4S)-3-fluoro-1-(2-hydroxyacetyl)piperidin-4-yl)oxy)benzonitrile]: the pIC50 in test [1] was at most 6.00; in test [2], 8.15; in test [3] (setting [4]), 7.70.
Take `N#Cc1cc(-c2ncnc(Nc3ccc(N4CCN(C5COC5)CC4)cc3)n2)ccc1NC(=O)CC(F)(F)F` [Example 496, N-(2-cyano-4-(4-((4-(4-(oxetan-3-yl)piperazin-1-yl)phenyl)amino)-1,3,5-triazin-2-yl)phenyl)-3,3,3-trifluoropropanamide]: the pIC50 in test [1] is 8.10; in test [2], 8.22; in test [3] (setting [4]) it was 8.10.
On to `N#Cc1cc(-c2ncnc(Nc3ccc(N4CCO[C@@H](CO)C4)cc3)n2)ccc1OC1CCN(C(=O)CO)CC1` [Example 227, (R)-2-((1-(2-hydroxyacetyl)piperidin-4-yl)oxy)-5-(4-((4-(2-(hydroxymethyl)morpholino)phenyl)amino)-1,3,5-triazin-2-yl)benzonitrile], for which the results for the pIC50 in test [1], in test [2] and in test [3] were 6.48, 8.70 and 8.40, respectively.
`N#Cc1cccc(-c2ncnc(Nc3ccc(N4CCN(C5COC5)CC4)cc3)n2)c1` [Example 215, 3-(4-((4-(4-(oxetan-3-yl)piperazin-1-yl)phenyl)amino)-1,3,5-triazin-2-yl)benzonitrile]: the negative logarithm of the IC50 (pIC50) in test [1] was 6.18; in test [2], 6.00; in test [3], at most 6.00.
The like results for `C[C@H]1CN(C2COC2)CCN1c1ccc(Nc2ncnc(-c3ccc(O[C@H]4CCN(C(=O)CCO)CC4(F)F)c(C#N)c3)n2)cc1` [Example 254, 2-(((S)-3,3-difluoro-1-(3-hydroxypropanoyl)piperidin-4-yl)oxy)-5-(4-((4-((S)-2-methyl-4-(oxetan-3-yl)piperazin-1-yl)phenyl)amino)-1,3,5-triazin-2-yl)benzonitrile] were, in that order, 6.82, 8.52 and 8.30.
The corresponding values for `N#Cc1cc(-c2ncnc(Nc3ccc(N4CCN(C5COC5)CC4)cc3)n2)ccc1OC1CCOCC1` [Example 67, 5-(4-((4-(4-(oxetan-3-yl)piperazin-1-yl)phenyl)amino)-1,3,5-triazin-2-yl)-2-((tetrahydro-2H-pyran-4-yl)oxy)benzonitrile] are 6.10, 8.70 and 8.22.
As to `N#CCC(=O)Nc1ccc(-c2ncnc(Nc3ccc(N4CCN(C5COC5)CC4)cc3)n2)cc1C#N` [Example 494, 2-cyano-N-(2-cyano-4-(4-((4-(4-(oxetan-3-yl)piperazin-1-yl)phenyl)amino)-1,3,5-triazin-2-yl)phenyl)acetamide], the negative logarithm of the IC50 (pIC50) in test [1] was 7.92; in test [2], 7.72; in test [3] (setting [4]), 7.54.
The like results for `C[C@H](O)C(=O)N1CC[C@H](Oc2ccc(-c3ncnc(Nc4cnn(C)c4CO)n3)cc2C#N)[C@H](F)C1` [Example 565, 2-(((3R,4S)-3-fluoro-1-((S)-2-hydroxypropanoyl)piperidin-4-yl)oxy)-5-(4-((5-(hydroxymethyl)-1-methyl-1H-pyrazol-4-yl)amino)-1,3,5-triazin-2-yl)benzonitrile] were, in that order, at most 6.00, 7.05 and 6.90.
As for `C[C@H](O)C(=O)N1CC[C@H](Oc2ccc(-c3ncnc(Nc4ccc(C5CCN(C6COC6)CC5)c(F)c4)n3)cc2C#N)[C@H](F)C1` [Example 310, 2-(((3R,4S)-3-fluoro-1-((S)-2-hydroxypropanoyl)piperidin-4-yl)oxy)-5-(4-((3-fluoro-4-(1-(oxetan-3-yl)piperidin-4-yl)phenyl)amino)-1,3,5-triazin-2-yl)benzonitrile], the figures for the pIC50 in test [1], in test [2] and in test [3] were at most 6.00, 8.40 and 8.70, respectively.
The like results for `C[C@H](O)C(=O)N1CC[C@H](Oc2ccc(-c3ncnc(Nc4ccc(N5CCN(C6COC6)CC5)c(C(F)F)c4)n3)cc2C#N)[C@H](F)C1` [Example 371, 5-(4-((3-(difluoromethyl)-4-(4-(oxetan-3-yl)piperazin-1-yl)phenyl)amino)-1,3,5-triazin-2-yl)-2-(((3R,4S)-3-fluoro-1-((S)-2-hydroxypropanoyl)piperidin-4-yl)oxy)benzonitrile] were, in that order, 6.00, 8.70 and 9.00.
The corresponding values for `COc1cc(Nc2ncnc(-c3ccc(OC4CCOCC4)c(C#N)c3)n2)ccc1N1CCN(C2COC2)CC1` [Example 13, 5-(4-((3-methoxy-4-(4-(oxetan-3-yl)piperazin-1-yl)phenyl)amino)-1,3,5-triazin-2-yl)-2-((tetrahydro-2H-pyran-4-yl)oxy)benzonitrile] are 6.90, 9.00 and 8.70.
As to `N#Cc1cc(-c2ncnc(Nc3ccc(N4CCOCC4)cc3F)n2)ccc1O[C@H]1CCN(C(=O)[C@@H](O)CO)C[C@H]1F` [Example 556, 2-(((3R,4S)-1-((S)-2,3-dihydroxypropanoyl)-3-fluoropiperidin-4-yl)oxy)-5-(4-((2-fluoro-4-morpholinophenyl)amino)-1,3,5-triazin-2-yl)benzonitrile], the negative logarithm of the IC50 (pIC50) in test [1] was at most 6.00; in test [2], 8.52; in test [3] (setting [4]), 8.30.
Take `C[C@H](O)C(=O)N1CC[C@H](Oc2ccc(-c3ncnc(Nc4ccc(N5CCN(C6COC6)CC5)nc4)n3)cc2C#N)[C@H](F)C1` [Example 379, 2-(((3R,4S)-3-fluoro-1-((S)-2-hydroxypropanoyl)piperidin-4-yl)oxy)-5-(4-((6-(4-(oxetan-3-yl)piperazin-1-yl)pyridin-3-yl)amino)-1,3,5-triazin-2-yl)benzonitrile]: the figures for the pIC50 in test [1], in test [2] and in test [3] were at most 6.00, 8.30 and 8.52, respectively.
The corresponding values for `COc1cc(Nc2ncnc(-c3ccc(OC4CCS(=O)(=O)CC4)c(C#N)c3)n2)ccc1N1CCN(C2COC2)CC1` [Example 33, 2-((1,1-dioxidotetrahydro-2H-thiopyran-4-yl)oxy)-5-(4-((3-methoxy-4-(4-(oxetan-3-yl)piperazin-1-yl)phenyl)amino)-1,3,5-triazin-2-yl)benzonitrile] are 7.23, 8.40 and 7.74.
Turning to `COc1ccc(Nc2ncnc(-c3ccc(OC4CCOCC4)c(C#N)c3)n2)cc1` [Example 72, 5-(4-((4-methoxyphenyl)amino)-1,3,5-triazin-2-yl)-2-((tetrahydro-2H-pyran-4-yl)oxy)benzonitrile], the pIC50 in test [1] is under 6.00; in test [2], 8.30; in test [3], 7.68.
